Measured values published in PubChem BioAssay AID2060505 (Molecular Pharmacology Branch, DTP, NCI, 2025).

Test system: 633275-114-R-J1-PDC complex spheroids, viability
Experiment: Anticancer human tumor 633275-114-R-J1-PDC patient-derived endometrial adenocarcinoma cell line growth inhibition [GQUAD]
Conditions: for IC50: curve of first compound; for viability, T/C: stronger effect = lower value
Outline: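 Viability of tumor cells grown as complex spheroids with endothelial and stromal cells, exposed to drug combinations. Top concentration at or near clinical Cmax (else 10 microM), diluted in half-log increments.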

[1] = second compound 0.0316 µM, first compound 0.0316 µM
[2] = second compound 0.0316 µM, first compound 0.316 µM
[3] = second compound 0.1 µM, first compound 0.0316 µM
[4] = second compound 0.1 µM, first compound 0.316 µM
[5] = second compound 0.316 µM, first compound 0.0316 µM
[6] = second compound 0.316 µM, first compound 0.316 µM
[7] = second compound 1 µM, first compound 0.0316 µM
[8] = second compound 1 µM, first compound 0.316 µM
[9] = second compound 3.16 µM, first compound 0.0316 µM
[10] = second compound 3.16 µM, first compound 0.316 µM
[11] = second compound 10 µM, first compound 0.0316 µM
[12] = second compound 10 µM, first compound 0.316 µM
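Further: spheroids exposed to the agents for seven days.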
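Wherever viability, T/C is given: percent of DMSO vehicle control viability which is 100%.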

CC1COCCN1c1cc(-c2ccnn2C)c2ccnc(-c3ccn[nH]3)c2n1 (centres undefined) + Cc1[nH]c2ccc(F)cc2c1-c1nc2c3cccnc3c3ncccc3c2[nH]1
IC50 (second compound 0.0316 µM): 146 nM | IC50 (second compound 0.1 µM): 156 nM | IC50 (second compound 0.316 µM): 191 nM | IC50 (second compound 1 µM): 116 nM | IC50 (second compound 3.16 µM): 70.4 nM | IC50 (second compound 10 µM): 74.8 nM | viability, T/C [1]: 77.3% | viability, T/C (second compound 0.0316 µM, first compound 0.1 µM): 56.4% | viability, T/C [2]: 37.1% | viability, T/C (second compound 0.0316 µM, first compound 1 µM): 27.7% | viability, T/C (second compound 0.0316 µM, first compound 3.16 µM): 21.9% | viability, T/C (second compound 0.0316 µM, first compound 10 µM): 16.8% | viability, T/C [3]: 80.5% | viability, T/C (second compound 0.1 µM, first compound 0.1 µM): 57.5% | viability, T/C [4]: 38.3% | viability, T/C (second compound 0.1 µM, first compound 1 µM): 26.3% | viability, T/C (second compound 0.1 µM, first compound 3.16 µM): 21.4% | viability, T/C (second compound 0.1 µM, first compound 10 µM): 17% | viability, T/C [5]: 77.6% | viability, T/C (second compound 0.316 µM, first compound 0.1 µM): 62.9% | viability, T/C [6]: 39% | viability, T/C (second compound 0.316 µM, first compound 1 µM): 28.1% | viability, T/C (second compound 0.316 µM, first compound 3.16 µM): 21.2% | viability, T/C (second compound 0.316 µM, first compound 10 µM): 18.4% | viability, T/C [7]: 77.9% | viability, T/C (second compound 1 µM, first compound 0.1 µM): 52.5% | viability, T/C [8]: 34.6% | viability, T/C (second compound 1 µM, first compound 1 µM): 26.6% | viability, T/C (second compound 1 µM, first compound 3.16 µM): 23% | viability, T/C (second compound 1 µM, first compound 10 µM): 17.7% | viability, T/C [9]: 60.9% | viability, T/C (second compound 3.16 µM, first compound 0.1 µM): 46.1% | viability, T/C [10]: 31.1% | viability, T/C (second compound 3.16 µM, first compound 1 µM): 26.8% | viability, T/C (second compound 3.16 µM, first compound 3.16 µM): 21.7% | viability, T/C (second compound 3.16 µM, first compound 10 µM): 17.5% | viability, T/C [11]: 61% | viability, T/C (second compound 10 µM, first compound 0.1 µM): 46.9% | viability, T/C [12]: 30.8% | viability, T/C (second compound 10 µM, first compound 1 µM): 25.1% | viability, T/C (second compound 10 µM, first compound 3.16 µM): 21.1% | viability, T/C (second compound 10 µM, first compound 10 µM): 18.6%

Cn1ncnc1[C@H]1c2n[nH]c(=O)c3cc(F)cc(c23)N[C@@H]1c1ccc(F)cc1 + CN(C)c1ccc(Nc2c3ccc(NC(=O)CCN4CCCC4)cc3nc3cc(NC(=O)CCN4CCCC4)ccc23)cc1
IC50 (second compound 0.0316 µM): > 316 nM | IC50 (second compound 0.1 µM): > 316 nM | IC50 (second compound 0.316 µM): > 316 nM | IC50 (second compound 1 µM): > 316 nM | IC50 (second compound 3.16 µM): > 316 nM | IC50 (second compound 10 µM): < 0.999 nM | viability, T/C (second compound 0.0316 µM, first compound 0.000999 µM): 103% | viability, T/C (second compound 0.0316 µM, first compound 0.00316 µM): 95.6% | viability, T/C (second compound 0.0316 µM, first compound 0.00999 µM): 82% | viability, T/C [1]: 76.8% | viability, T/C (second compound 0.0316 µM, first compound 0.0999 µM): 65.4% | viability, T/C [2]: 55.5% | viability, T/C (second compound 0.1 µM, first compound 0.000999 µM): 97.6% | viability, T/C (second compound 0.1 µM, first compound 0.00316 µM): 101% | viability, T/C (second compound 0.1 µM, first compound 0.00999 µM): 98% | viability, T/C [3]: 74.8% | viability, T/C (second compound 0.1 µM, first compound 0.0999 µM): 70.6% | viability, T/C [4]: 63.1% | viability, T/C (second compound 0.316 µM, first compound 0.000999 µM): 95.2% | viability, T/C (second compound 0.316 µM, first compound 0.00316 µM): 102% | viability, T/C (second compound 0.316 µM, first compound 0.00999 µM): 86.5% | viability, T/C [5]: 86.4% | viability, T/C (second compound 0.316 µM, first compound 0.0999 µM): 71.2% | viability, T/C [6]: 52.9% | viability, T/C (second compound 1 µM, first compound 0.000999 µM): 102% | viability, T/C (second compound 1 µM, first compound 0.00316 µM): 96.2% | viability, T/C (second compound 1 µM, first compound 0.00999 µM): 91.9% | viability, T/C [7]: 77.1% | viability, T/C (second compound 1 µM, first compound 0.0999 µM): 63.6% | viability, T/C [8]: 54.4% | viability, T/C (second compound 3.16 µM, first compound 0.000999 µM): 84.9% | viability, T/C (second compound 3.16 µM, first compound 0.00316 µM): 91.2% | viability, T/C (second compound 3.16 µM, first compound 0.00999 µM): 79.7% | viability, T/C [9]: 70% | viability, T/C (second compound 3.16 µM, first compound 0.0999 µM): 59.3% | viability, T/C [10]: 49.6% | viability, T/C (second compound 10 µM, first compound 0.000999 µM): 31.5% | viability, T/C (second compound 10 µM, first compound 0.00316 µM): 35.2% | viability, T/C (second compound 10 µM, first compound 0.00999 µM): 35.4% | viability, T/C [11]: 29.7% | viability, T/C (second compound 10 µM, first compound 0.0999 µM): 26.3% | viability, T/C [12]: 22%
